Assays:
[1] = Isothermal titration calorimetry (ITC), BF4^−; assay type: binding; settings: DMSO:CHCl3 (5:95, v/v), 25° C.
Method: (§1) Isothermal titration calorimetry (ITC) experiments were performed using a MicroCal VP-ITC. ITC experiments were conducted by adding ~1.5 mL of a solution containing c5a to the sample cell. Followed by titrating 10 μL aliquots of a solution containing the corresponding TBA·X salt (~10-14× concentration of c5a solution) from the syringe into the sample cell. Heats of dilution were obtained by titrating 10 μL aliquots of the TBA·X solution from the syringe into the sample cell in the absence of c5a. The heats of dilution were subtracted from the raw data. ITC data processing and curve fitting was done using the Origin program (MicroCal).
(§2) Two-step competition ITC experiments for determining the Ka of c5a and iodide. In CH3CN:CHCl3 (5:95, v/v), the binding affinity of c5a for I^− was too high to be determined with direct NMR or ITC titration. Instead, two-step competition ITC experiments with Cl^− as the competitor were performed.

[2] = Isothermal titration calorimetry (ITC), IO4^−; assay type: binding; settings: 25° C.
Method: as §1, §2

[3] = tested on: Human bronchial epithelial (HBE) cells from cystic fibrosis (CF) patients; test: Airway surface liquid (ASL) thickness, confocal imaging; assay type: cell-based; settings: CF HBE cultures, c5a 5 μM with 1% DMSO in PBS apically daily for five days
Method: Primary Cell Culture. Human bronchial epithelial (HBE) cells from cystic fibrosis (CF) patients (DF508 homozygous) were obtained from the UNC-CF Tissue Culture Core under the auspices of protocols approved by the UNC Institutional Review Board using previously reported methodologies. Cultures on 12-mm permeable supports (Transwell-Clear; Costar) were maintained in a well-humidified (>95%) incubator (5% CO2) at 37° C. during cellular differentiation (3-4 weeks after plating).
Confocal imaging studies. CF HBE cultures were treated with apically with c5a (5 μM in 1% DMSO) or vehicle control (1% DMSO in PBS) daily for 5 days prior to imaging. The height of the luminal airway surface layer (ASL) was visualized by adding a cell-impermeant dye (Texas Red-dextran 70 kDa; 0.1%) to the c5a and vehicle control on the evening prior to imaging. […] The thickness of the ASL layer in c5a and control cultures were measured by high-speed X-Z confocal scanning. […]
Human bronchial epithelial (HBE) cells isolated from CF patients were cultured at the time of lung transplant as a model system for diseased airways. […] The thickness of the ASL layer on the surface of the HBE cell layer can be conveniently measured by determining the thickness of the fluorescently-labeled fluid layer on the airway surface using X-Z confocal scanning microscopy (FIG. 117b). […]

[4] = Solubility; assay type: physicochemical; settings: CHCl3, CH2Cl2, DMF, and DMSO
[5] = Isothermal titration calorimetry (ITC), ClO4^−; assay type: binding; settings: 25° C.
Method: as §1, §2

[6] = 1H NMR titration, binding of bromide; settings: DMSO-d6:CDCl3 (15:85, v/v), 25° C., NMR titration (protons a and b)
Method: […] […] The titration data were collected by monitoring the changes in chemical shifts of the backbone amide protons and the inner aromatic protons with varying ratios of the anion guests. Job plots indicate that these linear oligoamides and their anion guests bind in a 1:1 stoichiometry.
(§3) ^1H NMR titration methods. Titrations of c5a and c5b with anions as their tetra-n-butylammonium (TBA), tetra-ethylammonium (TEA) and tetra-methylammonium (TMA) salts were carried out by ^1H NMR (400 MHz) at 25° C. 0.4 mL of corresponding hosts solutions were prepared in the rubber-cap NMR tubes. Aliquots of concentrated guest solution containing hosts were added into the NMR tubes using 20 microliter pipette. An initial ^1H NMR spectrum was collected and additional spectra were obtained after each injection of guest solution. All titration ^1H NMR spectra were stacked together and the chemical shifts of the internal aromatic CH proton were then fitted to 1:1 binding model using BindFit v0.5 (http://app.supramolecular.org/bindfit/) to evaluate binding constants to anions.

[7] = Isothermal titration calorimetry (ITC), Br^−; assay type: binding; settings: 25° C.
Method: as §1, §2

[8] = Halide transport, lucigenin assay; assay type: biochemical; settings: POPC LUVs, inside 100 mM NaNO3 + 1 mM lucigenin, outside 100 mM NaX, pH 7.0
From the text: Determination of halide transport with the lucigenin assay.

[9] = 1H NMR titration, binding of ClO4^−; settings: DMSO-d6:CDCl3 (15:85, v/v), 25° C.
Method: as §3

[10] = 1H NMR titration, binding of IO4^−; settings: DMSO-d6:CDCl3 (15:85, v/v), 25° C., NMR titration (protons a and b)
Method: as §3

[11] = Carrier vs channel chloride transport with DPPC LUVs; assay type: biochemical; settings: HPTS
Method: Differentiation of carrier vs channel chloride transport with DPPC LUVs. An aliquot (20 μL) DPPC LUVs (intravesicular components: 10 mM HEPES, 100 mM NaCl, pH 7.0) was added to 1.98 mL of a buffer comprised of 10 mM HEPES, 100 mM NaCl, pH 7, followed by incubating at 45° C. for 3 min. An aliquot (20 μL) of c5a (0.2 mM) in DMF was added to the LUVs, with the final concentration of c5a being […], and the solution was incubated for an additional 3 min at 45° C. LUVs with c5a were incubated either at 45° C. or 25° C. for 3 minutes.

CCCCCCCCOCC(C)(C)C(=O)Nc1ccc2cc1C(=O)Nc1ccc(NC(=O)C(C)(C)COCCCCCCCC)c(c1)C(=O)Nc1ccc(NC(=O)C(C)(C)COCCCCCCCC)c(c1)C(=O)Nc1ccc(NC(=O)C(C)(C)COCCCCCCCC)c(c1)C(=O)Nc1ccc(NC(=O)C(C)(C)COCCCCCCCC)c(c1)C(=O)N2 [c5a]
Association constant Ka, 1:1 complex with BF4^− [1]: (8.70 ± 0.40) × 10^5 M^−1 | Association constant Ka, 1:1 complex with IO4^− ([2]; CH3CN:CHCl3 (5:95, v/v)): (2.54 ± 0.22) × 10^7 M^−1 | Association constant Ka, 1:1 complex with IO4^− ([2]; DMSO:CHCl3 (5:95, v/v)): (1.72 ± 0.05) × 10^5 M^−1 | increase of ASL thickness vs control CF [3]: more than 50% | ASL thickness ([3]; X-Z confocal): 7.8±1.7 μm | solubility in organic solvents [4]: soluble | Association constant Ka, 1:1 complex with ClO4^− ([5]; DMSO-d6:CDCl3 (15:85, v/v) column, ITC measurements (footnote d)): (1.90 ± 0.02) × 10^4 ^d M^−1 | Association constant Ka, 1:1 complex with ClO4^− ([5]; DMSO:CHCl3 (5:95, v/v), ITC): (4.50 ± 0.50) × 10^5 M^−1 | Association constant Ka, 1:1 complex with Br^− [6]: (9.82 ± 1.08) × 10^3 M^−1 | Association constant Ka, 1:1 complex with Br^− ([7]; CH3CN:CHCl3 (5:95, v/v)): (1.79 ± 0.34) × 10^7 M^−1 | Association constant Ka, 1:1 complex with Br^− ([7]; DMSO:CHCl3 (5:95, v/v)): (1.37 ± 0.04) × 10^4 M^−1 | sequence of halide transport efficiency (reduction of lucigenin fluorescence) [8]: Cl^−>Br^−>I^− | Association constant Ka, 1:1 complex with ClO4^− ([9]; single NMR titration (protons a and b)): (5.74 ± 0.51) × 10^4 M^−1 | Association constant Ka, 1:1 complex with ClO4^− ([9]; triplicate NMR titrations (footnote c)): (9.60 ± 0.76) × 10^4 ^c M^−1 | Association constant Ka, 1:1 complex with IO4^− [10]: (1.18 ± 0.08) × 10^4 M^−1 | chloride transport into DPPC LUVs ([11]; 25° C. (gel phase), c5a pre-incubated at 45° C.): completely prohibited | chloride transport into DPPC LUVs ([11]; 45° C. (fluid phase)): enhanced halide transport

From US20260272879A1, “ANION-BINDING AROMATIC OLIGOAMIDE MACROCYCLES AND METHODS OF MAKING AND USING SAME” (The Research Foundation for The State University of New York, priority 2023, published 2026)
